How the values were obtained:
[1] = test system: human skin (leftover from abdominal plastic surgery); assay: Wound healing on ex vivo human skin
Protocol: The ability of various molecular weights of hyaluronic acid (HA) are tested to determine their respective properties relative to wound healing and repair.
In this study, human skin (leftover from abdominal plastic surgery) is used. An N=6 skin samples are used for each test condition for statistical comparison. Before treatment with test samples and positive control (Allantoin), a controlled mean wound of about 1 mm length is created on the skin by removing epidermis using a diamond spurr tip. Four microliters of test samples or Allantoin (positive control) are applied on the wound followed by incubation of the tissue for 6 days, and then harvesting of the tissues in order for hematoxylin and eosin staining for morphological analysis. The length of the wounds are measured and values are compared for statistical comparison with untreated Day 6 (self-healing of the skin in absence of any treatment).

[2] = test system: darkly pigmented human epidermal melanocyte cell model; assay: Melanocyte viability, Alamar Blue; assay type: cell-based; conditions: melanocytes, after 5 day of treatment, relative to untreated (100%)
Protocol: In order to evaluate the melanin synthesis inhibition activity of hexylresorcinol, licorice extract and the combination thereof at certain concentrations, In vitro studies are conducted on darkly pigmented human epidermal melanocyte cell model. Darkly pigmented melanocytes cells are placed on 24-well plates. As a positive control, 0.00025% hydroquinone is used. Hexylresorcinol, licorice extract, and hydroquinone solutions are prepared as follows. […] For combination treatment, 2× solutions of hexylresorcinol and licorice extract are mixed. For single treatment, 2× solutions are mixed with the equal volume of media. Test samples are listed in Table 1. • 0.5 ml of each test sample is directly applied to the 24-well plates in triplicates. After 5 day of treatment, melanocyte viability and melanin synthesis are measured. Melanocyte viability is quantified using Alamar Blue solution, which is a nontoxic dye commonly used to assess cell viability.

[3] = test system: darkly pigmented human epidermal melanocyte cell model; assay: Melanin synthesis in melanocytes (NaOH solubilized melanin, 490 nm), Table 2; assay type: cell-based; conditions: for Change from untreated (reduction in melanin synthesis) / Melanin Synthesis: after 5 day of treatment; for Melanin Synthesis: relative to untreated (100%); for inhibits melanin synthesis: 5 day
Protocol: In order to evaluate the melanin synthesis inhibition activity of hexylresorcinol, licorice extract and the combination thereof at certain concentrations, In vitro studies are conducted on darkly pigmented human epidermal melanocyte cell model. Darkly pigmented melanocytes cells are placed on 24-well plates. As a positive control, 0.00025% hydroquinone is used. Hexylresorcinol, licorice extract, and hydroquinone solutions are prepared as follows. […] For combination treatment, 2× solutions of hexylresorcinol and licorice extract are mixed. For single treatment, 2× solutions are mixed with the equal volume of media. Test samples are listed in Table 1. • 0.5 ml of each test sample is directly applied to the 24-well plates in triplicates. After 5 day of treatment, melanocyte viability and melanin synthesis are measured. Melanin synthesis is quantified as follows. Cells are first rinsed with PBS to remove any residual solution and 200 μl NaOH is added to each cell. The plates are shaken for 4 hours to solubilize melanin produced by melanocytes. Solubilized melanin is measured by a spectrometer at 490 nm.

melanocytes = assay: Melanin synthesis inhibition, separate assay, Table 2a; assay type: cell-based, human; conditions: sample concentrations per Table 2b
Protocol: In a separate assay melanin synthesis is quantified as follows. Cells are first rinsed with PBS to remove any residual solution and 200 μl NaOH is added to each cell. The plates are shaken for 4 hours to solubilize melanin produced by melanocytes. Solubilized melanin is measured by a spectrometer at 490 nm.

MelanoDerm tissues = assay: Melanin synthesis inhibition in MelanoDerm tissues, separate assay, Table 3a; assay type: cell-based
Protocol: In a separate assay, further comparisons are made to 2% kojic acid solution, which is the industry standard for in vitro tissue testing, and market-based product that is hydroquinone free (“MB HQ Free”) but contains kojic acid and other skin brightening ingredients. In total, 31 prototypes are prepared, and 26 of those are assessed in MelanoDerm™ tissues, as described above.

| SMILES | Viability [2] | Change from untreated (reduction in melanin synthesis) [3] | Melanin Synthesis [3] | Melanin Synthesis Inhibition (% inhibition vs. untreated) (melanocytes) | other results |
| --- | --- | --- | --- | --- | --- |
| NC(=O)NC1NC(=O)NC1=O (stereo not shown) [Allantoin] | – | – | – | – | Percent (%) Reduction in Wound Width Relative to the Untreated Day 6 ([1]; Day 6): 68%; Mean Wound Width Day 6 ([1]; Day 6 after four microliters applied on wound, N=6, untreated Day 6 874): 280 μm |
| Oc1ccc(O)cc1 [Control, hydroquinone, reference compound] | 92% ± 1% | 24.3% | 75.7% ± 0.9% | 20.6% | – |
| CCCCCCc1ccc(O)cc1O [HR1, hexylresorcinol] | 95% ± 3% | 6.9% | 93.1% ± 0.7% | – | – |
| CCCCCCc1ccc(O)cc1O [HR2, hexylresorcinol] | 105% ± 8% | 2.1% | 97.9% ± 2.1% | – | – |
| CCCCCCc1ccc(O)cc1O [HR 1, hexylresorcinol] | – | – | – | 10.4% | – |
| CCCCCCc1ccc(O)cc1O [HR 2, hexylresorcinol] | – | – | – | 10.2% | – |
| CCCCCCc1ccc(O)cc1O [HR 3, hexylresorcinol] | – | – | – | 9.3% | – |
| CCCCCCc1ccc(O)cc1O [HR 4, hexylresorcinol] | – | – | – | 8.8% | – |
| O=c1cc(CO)occ1O [Kojic Acid, kojic acid] | – | – | – | – | Melanin Synthesis Inhibition Relative to Untreated (% inhibition) (MelanoDerm tissues): 73.51% |
| CCCCCCc1ccc(O)cc1O [hexylresorcinol] | – | – | – | – | inhibits melanin synthesis ([3]; 0.0001% hexylresorcinol): 2.1%; inhibits melanin synthesis ([3]; 0.00025% hexylresorcinol): 6.9% |

Source: US12390405B2, “Personal care compositions” (Colgate-Palmolive Company, priority 2021, dated 2025)
